Reference: patent US11542492B2 (Celgene CAR LLC, priority 2009, dated 2023)

These molecules were tested against T1, recombinant human cIAP-1 (Homo sapiens, UniProt Q13490) (assay: Fluorescence polarization competition binding assay, cIAP-1). Conditions: c-IAP-1, 3 h.
T1 construct: purchased R&D Systems 818-IA
Description: Homogeneous, Fluorescence Polarization, Competition Binding Assay Protocol for Affinity Assessment of Compound Binding to XIAP, cIAP-1 and ML-IAPβ BIR3 Domains
1× stocks of recombinant human XIAP; BIR3 domain (895-XB), recombinant human cIAP-1 (818-IA) or recombinant human ML-IAPβ (818-IA) from R&D Systems and Fluorescence Polarization (FP) assay tracer (Atto-647 tagged IAP inhibitor probe compound) were prepared in assay buffer consisting of 25 mM Tris-HCL, pH 7.5 (Sigma), 10 mM […] (Sigma), 1 mM DTT (Fluka) and 0.005% TritonX-100 (Pierce). While IAP protein and tracer equilibrated at ambient temp in the dark (30-60 min), 100× stocks of test compound were prepared in 50% DMSO:H2O, serially diluted and spotted (0.5 µL/well) in duplicate wells of a 384-well, flat bottom, polypropylene, black assay plate (Greiner #781209). […] Competition binding between test compounds and assay tracer was initiated by the addition of 50 µL/well of pre-equilibrated IAP protein and assay tracer. Displacement of the assay tracer was measured in a Synergy plate reader from BioTek (Winooski, Vt.) at λex620/λem680 through a 660 nm half-sized dicroich mirror and S/P polarizing filters every 30 min for 3 hr. (See Huang, X., Journal of Biomolecular Screening 8, 2003). The resulting compound dose response data were fit to a one-site binding Ki model in GraphPad Prism from GraphPad Software (San Diego, Calif.).

T1 sequence (Q13490 whole entry): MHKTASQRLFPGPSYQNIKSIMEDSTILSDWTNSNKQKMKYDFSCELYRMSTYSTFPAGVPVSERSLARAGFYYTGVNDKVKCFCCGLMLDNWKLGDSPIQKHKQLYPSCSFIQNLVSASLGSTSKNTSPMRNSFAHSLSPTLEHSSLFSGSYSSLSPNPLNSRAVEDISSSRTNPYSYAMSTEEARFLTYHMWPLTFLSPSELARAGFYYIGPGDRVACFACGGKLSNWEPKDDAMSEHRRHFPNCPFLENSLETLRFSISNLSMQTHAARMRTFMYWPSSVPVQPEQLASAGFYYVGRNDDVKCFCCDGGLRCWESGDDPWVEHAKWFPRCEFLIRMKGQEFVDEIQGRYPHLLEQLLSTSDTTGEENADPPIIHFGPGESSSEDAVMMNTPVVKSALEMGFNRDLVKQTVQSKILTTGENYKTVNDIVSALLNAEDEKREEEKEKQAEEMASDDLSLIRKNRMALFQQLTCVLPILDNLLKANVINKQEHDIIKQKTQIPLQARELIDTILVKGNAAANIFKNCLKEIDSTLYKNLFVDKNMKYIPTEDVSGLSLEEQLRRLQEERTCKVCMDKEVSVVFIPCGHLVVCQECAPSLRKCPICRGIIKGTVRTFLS

| Structure (SMILES) | Ki [µM] |
| --- | --- |
| CN[C@@H](C)C(=O)N[C@H]1CCCC[C@H]2CC[C@@H](C(=O)NCc3cccc(C(=O)C=C(C)C)c3)N2C1=O [VII-19] | 0.01 to 0.1 |
| CN[C@@H](C)C(=O)N[C@H]1CCCC[C@H]2CC[C@@H](C(=O)NCc3cccc(C(=O)N[C@@H]4COC(=O)C4)c3)N2C1=O [VII-22] | 0.1 to 1 |
| CN[C@@H](C)C(=O)N[C@H]1CCCC[C@H]2CC[C@@H](C(=O)NCc3cccc(CNC(=O)[C@H]4CCC(=O)O4)c3)N2C1=O [VII-33] | 1 to 10 |
| C=CC(=O)NCc1cccc(CNC(=O)[C@@H]2CC[C@@H]3CCCC[C@H](NC(=O)[C@H](C)NC)C(=O)N32)c1 [VII-18] | 0.1 to 1 |
| CN[C@@H](C)C(=O)N[C@H]1CCCC[C@H]2CC[C@@H](C(=O)NCc3cccc(C(=O)OC4C(=O)OCC4(C)C)c3)N2C1=O (some centres unmarked) [VII-14] | 1 to 10 |
| CN[C@@H](C)C(=O)N[C@H]1CCCC[C@H]2CC[C@@H](C(=O)NCc3cccc(NC(=O)CC(=O)C(F)(F)F)c3)N2C1=O [VII-9] | 0.1 to 1 |
| CN[C@@H](C)C(=O)N[C@H]1CCCC[C@H]2CC[C@@H](C(=O)NCc3cccc(C(=O)N4CCC5CC4C(=O)O5)c3)N2C1=O (some centres unmarked) [VII-48] | 0.1 to 1 |
| CN[C@@H](C)C(=O)N[C@H]1CCCC[C@H]2CC[C@@H](C(=O)NCc3cccc(NC(=O)C4COC(=O)C4)c3)N2C1=O (some centres unmarked) [VII-45] | 1 to 10 |
| CN[C@@H](C)C(=O)N[C@H]1CCCC[C@H]2CC[C@@H](C(=O)NCc3cccc(NC(=O)/C=C/CN(C)C)c3)N2C1=O [VII-10] | 0.1 to 1 |
| CN[C@@H](C)C(=O)N[C@H]1CCCC[C@H]2CC[C@@H](C(=O)NCc3cccc(Nc4c(OC(C)C)c(=O)c4=O)c3)N2C1=O [VII-5] | 0.1 to 1 |
| CN[C@@H](C)C(=O)N[C@H]1CCCC[C@H]2CC[C@@H](C(=O)NCc3cccc(NC(=O)C45CC[C@](C)(C(=O)O4)C5(C)C)c3)N2C1=O [VII-26] | 0.1 to 1 |
| CN[C@@H](C)C(=O)N[C@H]1CCCC[C@H]2CC[C@@H](C(=O)NCc3cccc(NC(=O)[C@H]4CCC(=O)N4)c3)N2C1=O [VII-39] | 0.1 to 1 |
| CN[C@@H](C)C(=O)N[C@H]1CCCC[C@H]2CC[C@@H](C(=O)NCc3cccc(C(=O)NC[C@H]4CCC(=O)O4)c3)N2C1=O [VII-41] | 0.1 to 1 |
| CN[C@@H](C)C(=O)N[C@H]1CCCC[C@H]2CC[C@@H](C(=O)NCc3cccc(C(=O)N4C[C@H]5C[C@@H]4C(=O)O5)c3)N2C1=O [VII-25] | 0.1 to 1 |
| C=C(C)C(=O)Nc1cccc(CNC(=O)[C@@H]2CC[C@@H]3CCCC[C@H](NC(=O)[C@H](C)NC)C(=O)N32)c1 [VII-11] | 0.1 to 1 |

The molecules below were run against T2, p120γ (PI3Kγ) (Homo sapiens, UniProt P48736) (assay: HTRF assay, p120γ). Conditions: PI3Kγ; read-out: PI3Kγ HTRF IC50 Inhibition Designation.
T2 construct: purchased BPS Bioscience 40625
Format: biochemical
Description: The protocol below describes an end-point, competition-binding HTRF assay used to measure inherent potency of test compounds against active p110α/p85α, p110β/p85α, p120γ enzymes. The mechanics of the assay platform are best described by the vendor (Millipore, Billerica, Mass.) on their website at the following URL: http://www.millipore.com/coa/tech1/74jt4z.
Briefly, Stop solution (Stop A, #33-007 and Stop B, #33-009; 3:1 ratio) and Detection Mix (DMC, #33-015 with DMA, #33-011 and DMB, #33-013; 18:1:1 ratio) were prepared as recommended by the manufacturer ˜2 hrs prior to use. Additionally, 1× reaction buffer (4× buffer stock #33-003), a 1.4× stock of enzyme from BPS Bioscience (San Diego, Ca) or Millipore (Billerica, Mass.) with di-C8-PIP2 lipid substrate (#33-005), and a 4×ATP solution (#A7699) Sigma/Aldrich (St. Louis, Mo.) were prepared in 1×reaction buffer. 15 μL of enzyme and lipid substrate mix were pre-incubated in a Corning (#3573) 384-well, black, non-treated microtiter plate (Corning, N.Y.) for 30 min at 25° C. with a 0.5 μL volume of 50% DMSO and serially diluted compounds prepared in 50%-75% DMSO. Lipid kinase reactions were started with the addition of 5 μL of ATP solution, mixed for 15 sec on a rotary plate shaker and incubated for 15-30 minutes at 25° C. Next, reactions were stopped with a 5 μL addition of Stop solution followed by a 5 μL volume of Detection Mix. Stopped reactions were equilibrated for 1 and 18 hrs at room temperature and then read in a Synergy4 plate reader from BioTek (Winooski, Vt.) at λex330-80/λem620-35 and λem665-7.5. At the conclusion of each assay, the HTRF ratio from fluorescence emission values for each well was calculated and % Inhibition determined from averaged controls wells. % Inhibition values for each compound re then plotted against inhibitor concentration to estimate IC50 from log [Inhibitor] vs Response, Variable Slope model in GraphPad Prism from GraphPad Software (San Diego, Calif.).
Reagents Used in Optimized Protocol: • [p120γ]=1-4 nM, [ATP]=50 μM, [di-C8-PIP2]=10 μM • (40625; BPS Bioscience)

T2 sequence (P48736 whole entry): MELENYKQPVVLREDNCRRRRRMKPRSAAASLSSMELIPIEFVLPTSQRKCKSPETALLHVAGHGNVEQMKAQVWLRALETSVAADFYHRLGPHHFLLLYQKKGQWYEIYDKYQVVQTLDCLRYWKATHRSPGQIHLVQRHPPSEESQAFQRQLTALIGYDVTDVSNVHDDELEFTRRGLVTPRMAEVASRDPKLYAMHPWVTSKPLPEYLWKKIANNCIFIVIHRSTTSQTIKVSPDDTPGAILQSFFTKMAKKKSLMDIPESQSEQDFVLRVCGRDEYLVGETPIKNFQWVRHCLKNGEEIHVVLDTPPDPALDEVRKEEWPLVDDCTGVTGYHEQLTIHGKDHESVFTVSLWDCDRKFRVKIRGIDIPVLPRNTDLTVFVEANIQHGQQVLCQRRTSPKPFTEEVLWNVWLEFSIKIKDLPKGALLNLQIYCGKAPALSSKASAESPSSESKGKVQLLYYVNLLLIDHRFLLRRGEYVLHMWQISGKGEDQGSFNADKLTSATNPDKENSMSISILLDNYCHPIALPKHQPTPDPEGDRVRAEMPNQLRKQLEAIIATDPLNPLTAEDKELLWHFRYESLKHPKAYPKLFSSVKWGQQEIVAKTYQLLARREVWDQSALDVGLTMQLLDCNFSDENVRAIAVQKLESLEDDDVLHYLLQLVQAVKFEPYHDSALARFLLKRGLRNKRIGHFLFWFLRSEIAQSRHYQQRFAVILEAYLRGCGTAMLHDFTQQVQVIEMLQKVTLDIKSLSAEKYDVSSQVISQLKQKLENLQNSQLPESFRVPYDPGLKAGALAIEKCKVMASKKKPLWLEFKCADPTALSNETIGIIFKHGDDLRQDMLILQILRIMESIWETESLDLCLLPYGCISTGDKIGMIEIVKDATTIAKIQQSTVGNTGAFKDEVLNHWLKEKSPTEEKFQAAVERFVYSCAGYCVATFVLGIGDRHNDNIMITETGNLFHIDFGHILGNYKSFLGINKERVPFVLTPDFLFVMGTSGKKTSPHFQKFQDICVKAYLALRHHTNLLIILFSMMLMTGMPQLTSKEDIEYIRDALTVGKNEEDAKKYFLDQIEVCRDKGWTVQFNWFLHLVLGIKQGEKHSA

| Structure (SMILES) | IC50 [µM] |
| --- | --- |
| C=CC(=O)N(C)Cc1cc2nc(-c3cccc(O)c3)nc(N3CCOCC3)c2s1 [XXII-5, N-((2-(3-hydroxyphenyl)-4-morpholinothieno[3,2-d]pyrimidin-6-yl)methyl)-N-methylacrylamide] | 0.1 to 1 |

Same assay, conditions: p120γ; read-out: Reference Inhibitor IC50

| Structure (SMILES) | IC50 [µM] |
| --- | --- |
| Cc1ccc([N+](=O)[O-])cc1S(=O)(=O)N(C)/N=C/c1cnc2ccc(Br)cn12 [PIK75, reference compound] | 0.055 |

What follows are molecules tested against T3, PDPK1 (Homo sapiens, UniProt O15530) (assay: PDK1-OMNIA kinase assay (ST28-Sox peptide)). Conditions: PDPK1 enzyme pre-incubated 30 min at 25° C. with compound; [ATP]=5 μM; ST28-Sox peptide substrate; read-out: Inhibition/Modification Designation (IC50, PDK1-OMNIA).
T3 sequence (O15530 1-556): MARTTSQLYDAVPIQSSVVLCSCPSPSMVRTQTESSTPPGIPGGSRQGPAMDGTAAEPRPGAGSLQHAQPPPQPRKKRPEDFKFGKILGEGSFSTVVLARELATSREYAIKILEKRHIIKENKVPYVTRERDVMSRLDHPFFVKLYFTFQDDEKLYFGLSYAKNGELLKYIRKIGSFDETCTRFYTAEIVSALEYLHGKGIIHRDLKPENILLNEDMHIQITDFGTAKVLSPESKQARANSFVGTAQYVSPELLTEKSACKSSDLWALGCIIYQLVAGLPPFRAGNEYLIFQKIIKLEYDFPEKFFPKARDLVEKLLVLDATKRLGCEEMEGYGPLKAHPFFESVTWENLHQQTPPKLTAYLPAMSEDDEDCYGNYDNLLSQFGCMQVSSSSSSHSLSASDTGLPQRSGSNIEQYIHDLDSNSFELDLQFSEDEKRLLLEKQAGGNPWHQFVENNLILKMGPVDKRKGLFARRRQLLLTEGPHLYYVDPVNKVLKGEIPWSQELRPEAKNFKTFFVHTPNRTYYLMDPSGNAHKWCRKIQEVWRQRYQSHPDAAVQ
Format: biochemical
Parameters: purchased Invitrogen, BPS or SignalChem P3001 (Invitrogen), 40080 (BPS), P14-10H (SignalChem)
Description: Briefly, a 10× stock of PDPK1 enzyme from Invitrogen (P3001) or BPS (40080) or SignalChem (P14-10H), 1.13×ATP (AS001A) and ST28-Sox peptide substrate (KNZ1281C) were prepared in 1× kinase reaction buffer consisting of 20 mM Tris, pH 7.5, 5 mM MgCl2, 1 mM EGTA, 5 mM β-glycerophosphate, 5% glycerol (10× stock, KB002A) and 0.2 mM DTT (DS001A). 5 μL of enzyme were pre-incubated in a Corning (#3574) 384-well, white, non-binding surface microtiter plate (Corning, N.Y.) for 30 min at 25° C. with a 0.5 μL volume of 50% DMSO and serially diluted compounds prepared in 50% DMSO. Kinase reactions were started with the addition of 45 […] of the ST28-Sox peptide substrate and monitored every 71 seconds for 30-60 minutes at λex360/λem485 in a Synergy4 plate reader from BioTek (Winooski, Vt.). At the conclusion of each assay, progress curves from each well were examined for linear reaction kinetics and fit statistics (R^2, 95% confidence interval, absolute sum of squares). Post-lag velocity (+10 minutes to 20+ minutes) from each reaction was estimated from the slope of a plot of relative fluorescence units vs time (minutes) and normalized to the no enzyme and no inhibitor control groups for % Inhibition. The resulting inhibition values were then plotted against inhibitor concentration to estimate IC50 from log [Inhibitor] vs Response, Variable Slope model in GraphPad Prism from GraphPad Software (San Diego, Calif.).
[Reagent] used in provisional protocol(s): Invitrogen—[PDPK1]=5-10 nM, [ATP]=5 μM and [ST28-Sox]=5 μM or 10 μM (ATP KMapp=4-6 μM); BPS—[PDPK1]=10-15 nM, [ATP]=5 μM and [ST28-Sox]=10 μM (ATP KMapp=3-5 μM); SignalChem—[PDPK1]=5-10 nM, [ATP]=5 μM and [ST28-Sox]=5 μM or 10 μM (ATP KMapp ND)

| Structure (SMILES) | IC50 [µM] |
| --- | --- |
| CC(C)(C(N)=O)C(=O)NCCCNc1nc(Nc2cccc(NC(=O)CCC(=O)NC3CCSC3=O)c2)ncc1Br (centres unmarked) [XI-34] | 0.01 to 0.1 |
| CC(C)(C(N)=O)C(=O)NCCCNc1nc(Nc2ccc(CCC(=O)N3C[C@H]4C[C@@H]3C(=O)O4)cc2)ncc1Br [XI-40] | < 0.01 |
| CC(C)(C(N)=O)C(=O)NCCCNc1nc(Nc2cccc(CCC(=O)N3C[C@@H]4C[C@H]3C(=O)O4)c2)ncc1Br [XI-44] | 0.01 to 0.1 |
| CC1(C)OC2C(=O)CC(C(=O)NCC(=O)Nc3cccc(Nc4ncc(Br)c(NCCCNC(=O)C(C)(C)C(N)=O)n4)c3)C2O1 (centres unmarked) [XI-32] | 0.1 to 1 |
| CC(C)(C(N)=O)C(=O)NCCCNc1nc(Nc2cccc(NC(=O)C3CC(=O)CC(=O)C3)c2)ncc1Br [XI-29] | 0.01 to 0.1 |
| CC(C)(C(N)=O)C(=O)NCCCNc1nc(Nc2cccc(N3C(=O)CCC3=O)c2)ncc1Br [XI-46] | 0.01 to 0.1 |
| CC(C)(C(N)=O)C(=O)NCCCNc1nc(Nc2cccc(NC(=O)CNC(=O)C3CCSC3=O)c2)ncc1Br (centres unmarked) [XI-24] | 0.01 to 0.1 |
| CC(C)(C(N)=O)C(=O)NCCCNc1nc(Nc2cccc(NC(=O)CC(NC(=O)CCCC(=O)NCCCOCCOCCOCCCNC(=O)CCCC[C@@H]3SC[C@@H]4NC(=O)N[C@@H]43)C(=O)N3C[C@H]4C[C@@H]3C(=O)O4)c2)ncc1Br (some centres unmarked) [XI-56] | 0.1 to 1 |
| CC(C)(C(N)=O)C(=O)NCCCNc1nc(Nc2ccc(CCC(=O)N3C[C@@H]4C[C@H]3C(=O)O4)cc2)ncc1Br [XI-41] | < 0.01 |
| CC(C)(C(N)=O)C(=O)NCCCNc1nc(Nc2cccc(NC(=O)CCC(=O)N3C[C@@H]4CC3C(=O)O4)c2)ncc1Br [XI-48] | < 0.01 |
| CC(C)(C(N)=O)C(=O)NCCCNc1nc(Nc2cccc(NC(=O)CC(N)C(=O)N3C[C@H]4C[C@@H]3C(=O)O4)c2)ncc1Br (some centres unmarked) [XI-33] | 0.01 to 0.1 |
| CC(C)(C(N)=O)C(=O)NCCCNc1nc(Nc2cccc(NC(=O)[C@@H]3CCC(=O)O3)c2)ncc1Br [XI-52] | 0.01 to 0.1 |
